Series [1] concerns Staphylococcus aureus. The experiment in a line: Antibacterial activity against carbapenem-resistant Staphylococcus aureus M-126HR. It is filed as functional.
The test system of series [2] is Staphylococcus aureus. Nature of the series: Antibacterial activity against methicillin-resistant Staphylococcus aureus 209P JC1. It is filed as functional.
For series [3], the system named is Staphylococcus aureus. The experiment in a line: Antibacterial activity against methicillin-resistant Staphylococcus aureus M-126. It is filed as functional.
The subject of series [4] is Staphylococcus aureus. The experiment in a line: Antibacterial activity against methicillin-resistant Staphylococcus aureus. It is filed as functional.
Series [5] can be described thus: Solubility in water at 5 mg/mL. It is filed as physicochemical.

Converted amounts (≈) assume the structure as drawn.

What is called MIC is the least concentration at which growth counts as inhibited. As usually defined, the MIC50 is the lowest concentration that inhibits either 50% of growth or 50% of the strains tested, depending on the study. Broadly, the MIC90 is an inhibitory concentration at the 90% level, which refers to growth in some studies and to a panel of isolates in others. A low value points to greater potency. In general, solubility refers to the dissolved amount per volume that the medium holds. Lower therefore signals a poorly soluble substance.

On to `CSc1c2sc(C3=C(C(=O)O)N4C(=O)[C@H]([C@@H](C)O)[C@H]4[C@H]3C)cn2c[n+]1Cc1ccc(C[n+]2ccccc2)cc1.[Br-].[Br-]`, for which the MIC with Staphylococcus aureus [1] is 1.56 µg/mL; in the series on Staphylococcus aureus [2], under 0.006 µg/mL; in the series on Staphylococcus aureus [3], 0.78 µg/mL.

Turning to `CSc1c2sc(C3=C(C(=O)O)N4C(=O)[C@H]([C@@H](C)O)[C@H]4[C@H]3C)cn2c[n+]1Cc1cccc(C[N+]23CC[N+](C)(CC2)CC3)c1.[I-].[I-].[I-]`, the MIC against Staphylococcus aureus [1] was 1.56 µg/mL; against Staphylococcus aureus [2], under 0.006 µg/mL; in the series on Staphylococcus aureus [3], 0.78 µg/mL.

Regarding `CSc1c2sc(C3=C(C(=O)O)N4C(=O)[C@H]([C@@H](C)O)[C@H]4[C@H]3C)cn2c[n+]1Cc1cccc(C[N+]23CC[N+](CCCN)(CC2)CC3)c1.[I-].[I-].[I-]`, the minimum inhibitory concentration (MIC) was 0.78 µg/mL in the series with Staphylococcus aureus [1], under 0.006 µg/mL in the series on Staphylococcus aureus [2] and 0.39 µg/mL against Staphylococcus aureus [3]. The same compound displayed an MIC50 against Staphylococcus aureus [4] of 0.39 µg/mL. This compound also gave an MIC90 in the series on Staphylococcus aureus [4] of 0.78 µg/mL. In addition, the concentration in solution in series [5] (solubility) came to 20 mg/mL.

As for `CSc1c2sc(C3=C(C(=O)O)N4C(=O)[C@H]([C@@H](C)O)[C@H]4[C@H]3C)cn2c[n+]1Cc1cccc(C[n+]2cccc(C(N)=O)c2)c1.[Br-].[Br-]`, the results for the MIC against Staphylococcus aureus [1], against Staphylococcus aureus [2] and in the series on Staphylococcus aureus [3] were 1.56 µg/mL, under 0.006 µg/mL and 0.39 µg/mL, respectively.

Take `CSc1c2sc(C3=C(C(=O)O)N4C(=O)[C@H]([C@@H](C)O)[C@H]4[C@H]3C)cn2c[n+]1Cc1cccc(C[N+]23CC[N+](CCO)(CC2)CC3)c1.[Br-].[I-].[I-]`: the MIC against Staphylococcus aureus [1] is 1.56 µg/mL; with Staphylococcus aureus [2], under 0.006 µg/mL; in the series with Staphylococcus aureus [3], 0.78 µg/mL.

Regarding `CSc1c2sc(C3=C(C(=O)O)N4C(=O)[C@H]([C@@H](C)O)[C@H]4[C@H]3C)cn2c[n+]1Cc1cccc(C[N+]2(C)CCOCC2)c1.[Br-].[Br-]`, the MIC with Staphylococcus aureus [1] is 3.13 µg/mL; in the series with Staphylococcus aureus [2] it was under 0.006 µg/mL; in the series with Staphylococcus aureus [3], 0.78 µg/mL.

On to `CSc1c2sc(C3=C(C(=O)O)N4C(=O)[C@H]([C@@H](C)O)[C@H]4[C@H]3C)cn2c[n+]1Cc1ccc(C[N+]2(C)CCOCC2)cc1.[Br-].[Br-]`, for which the minimum inhibitory concentration (MIC) was 3.13 µg/mL against Staphylococcus aureus [1], under 0.006 µg/mL with Staphylococcus aureus [2] and 1.56 µg/mL with Staphylococcus aureus [3].

Regarding `CSc1c2sc(C3=C(C(=O)O)N4C(=O)[C@H]([C@@H](C)O)[C@H]4[C@H]3C)cn2c[n+]1Cc1ccccc1C[N+]1(C)CCOCC1.[Br-].[Br-]`, the results for the MIC in the series with Staphylococcus aureus [1], with Staphylococcus aureus [2] and in the series on Staphylococcus aureus [3] were 3.13 µg/mL, under 0.006 µg/mL and 1.56 µg/mL, respectively.

As for `CSc1c2sc(C3=C(C(=O)O)N4C(=O)[C@H]([C@@H](C)O)[C@H]4[C@H]3C)cn2c[n+]1Cc1cccc(C[n+]2cc3sccn3c2)c1.[Br-].[Br-]`, the MIC against Staphylococcus aureus [1] is 1.56 µg/mL; against Staphylococcus aureus [2] it was under 0.006 µg/mL; against Staphylococcus aureus [3], 0.78 µg/mL.

In the case of `CSc1c2sc(C3=C(C(=O)O)N4C(=O)[C@H]([C@@H](C)O)[C@H]4[C@H]3C)cn2c[n+]1Cc1ccccc1C[n+]1ccccc1.[Br-].[Br-]`, the MIC against Staphylococcus aureus [1] is 3.13 µg/mL; with Staphylococcus aureus [2] it was under 0.006 µg/mL; against Staphylococcus aureus [3], 1.56 µg/mL.

`CSc1c2sc(C3=C(C(=O)O)N4C(=O)[C@H]([C@@H](C)O)[C@H]4[C@H]3C)cn2c[n+]1Cc1cccc(C[N+]2(C)CCCC2)c1.[Br-].[Br-]`: the results for the MIC in the series with Staphylococcus aureus [1], with Staphylococcus aureus [2] and against Staphylococcus aureus [3] were 3.13 µg/mL, under 0.006 µg/mL and 0.78 µg/mL, respectively.

Regarding `CSc1c2sc(C3=C(C(=O)O)N4C(=O)[C@H]([C@@H](C)O)[C@H]4[C@H]3C)cn2c[n+]1Cc1cccc(C[n+]2ccsc2)c1.[Br-].[Br-]`, the figures for the MIC against Staphylococcus aureus [1], in the series with Staphylococcus aureus [2] and against Staphylococcus aureus [3] were 3.13 µg/mL, under 0.006 µg/mL and 0.78 µg/mL, respectively.

On to `CSc1c2sc(C3=C(C(=O)O)N4C(=O)[C@H]([C@@H](C)O)[C@H]4[C@H]3C)cn2c[n+]1Cc1cccc(C[n+]2ccccc2)c1.[Br-].[Br-]`, for which the values for the MIC in the series on Staphylococcus aureus [1], in the series with Staphylococcus aureus [2] and against Staphylococcus aureus [3] were 1.56 µg/mL, under 0.006 µg/mL and 0.78 µg/mL, respectively.

Regarding `CSc1c2sc(C3=C(C(=O)O)N4C(=O)[C@H]([C@@H](C)O)[C@H]4[C@H]3C)cn2c[n+]1Cc1cccc(C[N+]23CC[N+](CC(N)=O)(CC2)CC3)c1.[Br-].[I-].[I-]`, the MIC against Staphylococcus aureus [1] was 1.56 µg/mL; against Staphylococcus aureus [2], under 0.006 µg/mL; in the series on Staphylococcus aureus [3], 0.78 µg/mL.

Consider `CSc1c2sc(C3=C(C(=O)O)N4C(=O)[C@H]([C@@H](C)O)[C@H]4[C@H]3C)cn2c[n+]1Cc1cccc(C[n+]2ccc3ccccc3c2)c1.[Br-].[Br-]`, for which the values for the MIC against Staphylococcus aureus [1], against Staphylococcus aureus [2] and in the series on Staphylococcus aureus [3] were 1.56 µg/mL, under 0.006 µg/mL and 0.78 µg/mL, respectively.

For `CSc1c2sc(C3=C(C(=O)[O-])N4C(=O)[C@H]([C@@H](C)O)[C@H]4[C@H]3C)cn2c[n+]1CC(N)=O`, the values for the MIC against Staphylococcus aureus [1], in the series with Staphylococcus aureus [2] and against Staphylococcus aureus [3] were 3.13 µg/mL (≈ 7.17 µM), under 0.006 µg/mL and 1.56 µg/mL (≈ 3.57 µM), respectively.

Consider `CSc1c2sc(C3=C(C(=O)[O-])N4C(=O)[C@H]([C@@H](C)O)[C@H]4[C@H]3C)cn2c[n+]1Cc1ccc(C#N)cc1`, for which the figures for the MIC in the series with Staphylococcus aureus [1], in the series on Staphylococcus aureus [2] and against Staphylococcus aureus [3] were 3.13 µg/mL (≈ 6.33 µM), under 0.006 µg/mL and 0.78 µg/mL (≈ 1.58 µM), respectively.

Take `CSc1c2sc(C3=C(C(=O)[O-])N4C(=O)[C@H]([C@@H](C)O)[C@H]4[C@H]3C)cn2c[n+]1Cc1ccccc1`: the minimal inhibitory concentration (MIC) in the series with Staphylococcus aureus [1] was 1.56 µg/mL (≈ 3.32 µM); in the series on Staphylococcus aureus [2], under 0.006 µg/mL; with Staphylococcus aureus [3], 0.39 µg/mL (≈ 0.831 µM).

Consider `CSc1c2sc(C3=C(C(=O)[O-])N4C(=O)[C@H]([C@@H](C)O)[C@H]4[C@H]3C)cn2c[n+]1Cc1cccc(N)c1`, for which the MIC is 3.13 µg/mL (≈ 6.46 µM) against Staphylococcus aureus [1], under 0.006 µg/mL in the series on Staphylococcus aureus [2] and 0.78 µg/mL (≈ 1.61 µM) with Staphylococcus aureus [3].

As to `CSc1c2sc(C3=C(C(=O)[O-])N4C(=O)[C@H]([C@@H](C)O)[C@H]4[C@H]3C)cn2c[n+]1Cc1ccc(Cl)cc1`, the MIC in the series on Staphylococcus aureus [1] was 1.56 µg/mL (≈ 3.1 µM); in the series on Staphylococcus aureus [2], under 0.006 µg/mL; in the series on Staphylococcus aureus [3] it was 0.78 µg/mL (≈ 1.55 µM).

As for `CCN(CC)C(=O)c1ccc(C[n+]2cn3cc(C4=C(C(=O)[O-])N5C(=O)[C@H]([C@@H](C)O)[C@H]5[C@H]4C)sc3c2SC)cc1`, the minimal inhibitory concentration (MIC) against Staphylococcus aureus [1] came to 6.25 µg/mL (≈ 11 µM); against Staphylococcus aureus [2] it was 0.013 µg/mL (≈ 0.0229 µM); against Staphylococcus aureus [3], 1.56 µg/mL (≈ 2.74 µM).

Regarding `COc1cccc(C[n+]2cn3cc(C4=C(C(=O)[O-])N5C(=O)[C@H]([C@@H](C)O)[C@H]5[C@H]4C)sc3c2SC)c1`, the values for the MIC in the series with Staphylococcus aureus [1], in the series on Staphylococcus aureus [2] and with Staphylococcus aureus [3] were 1.56 µg/mL (≈ 3.12 µM), under 0.006 µg/mL and 0.78 µg/mL (≈ 1.56 µM), respectively.

On to `CSc1c2sc(C3=C(C(=O)[O-])N4C(=O)[C@H]([C@@H](C)O)[C@H]4[C@H]3C)cn2c[n+]1Cc1ccc(C(=O)O)cc1`, for which the MIC with Staphylococcus aureus [1] was determined as 12.5 µg/mL (≈ 24.3 µM); against Staphylococcus aureus [2], 0.025 µg/mL (≈ 0.0487 µM); in the series with Staphylococcus aureus [3], 3.13 µg/mL (≈ 6.09 µM).

On to `CSc1c2sc(C3=C(C(=O)[O-])N4C(=O)[C@H]([C@@H](C)O)[C@H]4[C@H]3C)cn2c[n+]1Cc1cccc(O)c1`, for which the MIC is 1.56 µg/mL (≈ 3.21 µM) with Staphylococcus aureus [1], under 0.006 µg/mL in the series on Staphylococcus aureus [2] and 0.39 µg/mL (≈ 0.803 µM) with Staphylococcus aureus [3].

For the compound `C[C@@H](O)[C@H]1C(=O)N2C(C(=O)O)=C(SCCNC=N)C[C@H]12` [IMIPENEM ANHYDROUS], the MIC was determined as 100 µg/mL (≈ 334 µM) against Staphylococcus aureus [1], 0.013 µg/mL (≈ 0.0434 µM) in the series with Staphylococcus aureus [2] and 25 µg/mL (≈ 83.5 µM) in the series with Staphylococcus aureus [3].

For `CN[C@H](CC(C)C)C(=O)N[C@H]1C(=O)N[C@@H](CC(N)=O)C(=O)N[C@H]2C(=O)N[C@H]3C(=O)N[C@H](C(=O)N[C@H](C(=O)O)c4cc(O)cc(O)c4-c4cc3ccc4O)[C@H](O)c3ccc(c(Cl)c3)Oc3cc2cc(c3O[C@@H]2O[C@H](CO)[C@@H](O)[C@H](O)[C@H]2O[C@H]2C[C@](C)(N)[C@H](O)[C@H](C)O2)Oc2ccc(cc2Cl)[C@H]1O` [VANCOMYCIN], the MIC against Staphylococcus aureus [1] stood at 1.56 µg/mL (≈ 1.08 µM); against Staphylococcus aureus [2] it was 0.78 µg/mL (≈ 0.538 µM); in the series on Staphylococcus aureus [3] it was 1.56 µg/mL (≈ 1.08 µM). In the series with Staphylococcus aureus [4], this compound showed an MIC50 of 1.56 µg/mL (≈ 1.08 µM). The compound further showed an MIC90 in the series with Staphylococcus aureus [4] of 1.56 µg/mL (≈ 1.08 µM).

The record behind these values is ChEMBL document CHEMBL1154519, “Synthesis of novel di- and tricationic carbapenems with potent anti-MRSA activity” (Bioorg Med Chem Lett, 2009).
